Data on two compounds can be found in US9211244B2, “Method for anti-skin aging using caffeamide derivative” (CHINA MEDICAL UNIVERSITY, priority 2013, dated 2015).

Data set [1] is described as follows: Scavenging test of DPPH free radical. It counts as biochemical. To be noted: for Scavenging efficiency (%): 200 μM DPPH, 30 minutes. The procedure:
DPPH (1,1-diphenyl-2-picrylhydrazyl) was used as a source of free radicals to examine the scavenging efficiency of the caffeamide derivatives prepared in Example 1 on free radicals. […] The mixtures were placed in the dark at room temperature for 30 minutes and its absorbance at 517 nm was measured by an enzyme immunoassay analyzer. In this experiment, 50 volume % propanediol was used to replace extracts and to be a control group, ascorbic acid (vitamin C) was used as a positive control group, and methanol was used to replace DPPH as the background value. The scavenging efficiency of caffeamide derivatives on free radicals was examined by the formula blow, and the results are shown in Table 2, FIG. 1a, and FIG. 1b. Scavenging efficiency(%)=[the absorbance of the control group−the absorbance of the experimental group/the absorbance of the control group]×100%.
(In general: Loss of DPPH colour is used to gauge radical scavenging.)

For data set [2], the system named is human fibroblast Hs68 cells. In words: Scavenging test of ROS free radicals in UVB-irradiated cells. The data set is classed as cell-based. To be noted: UVB 80 mJ/cm^2, 24 hours. On the procedure:
After incubated in an incubator (37° C., 5% CO2) for 24 hours, the ROS level was examined.

For a further data set, the system named is MMP-1. Kind of data set: MMP expression, western blot, UVB-irradiated Hs68 cells. The data set is classed as cell-based, human. To be noted: 5 μM; UVB 40 mJ/cm^2; 48 hours. On the procedure:
(§1) Human fibroblast Hs68 cells (5×10^5) (the number of Bioresource Collection and Research Center (BCRC): 60038) were counted and incubated in a culture dish with a diameter of 10 cm (the culture dish components were adjusted by L-glutamine (4 mM) to have 1.5 g/L NaHCO3, 4.5 g/L glucose, and 90% Dulbecco's Modified Eagle's Medium with 10% fetal bovine serum (FBS)). The medium was removed until human fibroblast Hs68 cells grow to a confluence of 80%, and the cells were then washed once with 5 ml PBS (phosphate buffered saline). Then, 3 ml phenol red-free medium which contain different concentrations (0 μM to 25 μM) of the compounds of formula (1) or formula (2) prepared in Example 1 were added into the culture dish. After incubating for 1 hour, the cells were irradiated by UV light (UVB with an intensity of 40 mJ/cm^2) for 15 seconds. Next, the phenol red-free medium which contains different concentrations (0 μM to 25 μM) of the compounds of formula (1) or formula (2) prepared in Example 1 were added into the culture dish sequentially. After incubation in an incubator (37° C., 5% CO2) for 48 hours, the cells were collected.
(§2) The collected cells were treated with a sonication buffer (containing Na3VO4 (100 μM), phenylmethanesulfonyl fluoride (PMSFL, 100 mg/ml), leupeptin (20 mg/ml), Tris-HCl (pH 7.4, 50 μM), NaCl (37.5 μM), DL-dithiothretiol (250 μM), sodium deoxycholate (3 μM), EDTA (1 μM), SDS (0.1%), and Igepal™ CA-630 (Sigma-Aldrich, 1%)) and sonicated to rupture the cell membranes. Then, the organelles and fragments of the cells were precipitated by centrifugation, and the supernatant, which contains proteins in the cytosol was collected. Next, the obtained proteins were separated by SDS-PAGE, and transferred to a membrane by western blotting. Antibodies were used to recognize the targeted proteins, such as MMP-1, MMP-3, MMP-9, and actin. The images were recorded by a Luminescent imagination technology (LAS-4000, FUJIFILM), and the variation of the proteins expression levels were determined by a quantitative analysis software (multi Gauge 2.2, Steware Technology Inc.).
On the technique in general: A western blot detects proteins with antibodies after separation by electrophoresis.

The subject of another data set is MMP-3. The description is as above. It counts as cell-based, human. The following applies: 5 μM; UVB 40 mJ/cm^2; 48 hours. The procedure: as §1, §2
A further data set deals with p-ERK. In words: Inhibition test of the phosphorylation of MAPK, western blot. To be noted: UVB 40 mJ/cm^2. The data set is classed as cell-based, human. The procedure:
(§3) It has been known that the skin photo-aging caused by UV rays will increase the content of MMPs in the dermis by the phosphorylation of MAPK. In this experiment, the effect of caffeamide derivative on the phosphorylation of MAPK in the cells was analyzed by western blotting.
(§4) After being treated with the compound of formula (2) prepared in Example 1, the protein expression levels of the MAPKs induced by UVB were inhibited in a concentration dependent way. Specifically, when the concentration of the compound of formula (2) was 10 μM, the expression level of P-ERK was 1.1 times as compared to that of the untreated cells. When the concentration of the compound of formula (2) was 5 μM, the expression levels of p-JNK and p-p38 were both 1.1 times as compared to that of the untreated cells.

In a further data set the test system is p-JNK. The data set is described as above. The data set is classed as cell-based, human. To be noted: UVB 40 mJ/cm^2. The procedure: as §3, §4
The test system of another data set is p-p38. The data set is described as above. The data set is classed as cell-based, human. The following applies: UVB 40 mJ/cm^2. On the procedure: as §3, §4
For the next data set, the system named is c-Fos. In words: Inhibition test of AP-1 gene transcription factors, western blot. To be noted: 5 μM; UVB 40 mJ/cm^2. It counts as cell-based, human. The text has this:
(§5) When cells are irradiated by UV rays, JNK, p38 and c-Jun in the cells will translocated into the nucleus, and c-For will translocate into the nucleus under the regulation of ERK and p38. The two subunits of c-Jun and c-Fos will combine to form an AP-1 gene transcription factor to participate in gene expression process and increase the mRNA transcription level of MMP-1. On the other hand, the two subunits can also reduce the gene expression level of procollagen al of Type I collagen. Therefore, in this experiment, the expression of AP-1 in the nucleus was analyzed by western blotting.
(§6) However, after the cells were treated with the compound of formula (2) prepared in Example 1, the protein expression levels of c-Fos, p-c-Jun, and c-Jun induced by UVB were inhibited in a concentration dependent way. Specifically, when the concentration of the compound of formula (2) was 10 μM, the expression level of c-Fos was 1.1 as compared to that of the untreated cells.

A further data set deals with c-Jun. The description is as above. The following applies: UVB 40 mJ/cm^2. The data set is classed as cell-based, human.
Text: as §5, §6

The test system of another data set is Smad3. In words: Promotion test of the expression of collagen, western blot. It counts as cell-based, human. To be noted: UVB 40 mJ/cm^2; result in words. The procedure: (§7) It has been known that Smad3 protein can promote the expression level of procollagen-1, and Smad7 protein can inhibit the expression level of Smad3 protein. After cells were irradiated with UV rays, the expression levels of procollagen-1 and Smad3 protein will reduce and the expression level of Smad7 protein will increase. Therefore, in this experiment, the expression levels of intracellular procollagen-1 protein, Smad3 protein and Smad7 protein were analyzed by western blotting.
(§8) Specifically, when the concentration of the compound of formula (2) was 25 μM, the protein expression level of Smad7 was 1.1 times as compared to that of the untreated cells.

Another data set has as its system Smad7. The description is as above. The data set is classed as cell-based, human. The following applies: UVB 40 mJ/cm^2. The procedure:
as §7, §8

Another data set has as its system procollagen-1. The data set is described as above. The data set is classed as cell-based, human. The following applies: 25 μM; UVB 40 mJ/cm^2. On the procedure: as §7, §8
The test system of data set [3] is human fibroblast Hs68 cells. In words: Cellular toxicity evaluation, MTT assay. The data set is classed as cell-based. To be noted: 24 hours. On the procedure:
MTT (3-(4,5-dimethylthiazol-2-yl)-2,5-diphenyl tetrazolium bromide) assay was used to determine the cellular toxicity of the caffeamide derivatives described herein. First, different concentrations (0 μM to 100 μM) of the compounds of formula (1) or formula (2) prepared in Example 1 of the present invention were added, respectively, into a 96-well microplate which containing human fibroblast Hs68 cells (1×10^4 cells per well). After the cells were incubated in an incubator at 37° C. and 5% CO2 for 24 hours, 15 μl of MTT solution (0.5 mg/ml; dissolved in PBS) was added into the microplate and the human fibroblast Hs68 cells were incubated for 3 hours. Next, 75 μl SDS (sodium dodecyl sulfate) solution (10% SDS was dissolved in 0.01N HCl) was added into the microplate. After the cells were maintained for 24 hours, the absorbances of each well were measured at a wavelength of 570 nm by an enzyme immunoassay analyzer. Finally, the cell survival rate was calculated by the following formula to observe the cellular toxicity of compounds. The results are shown in Table 5, FIG. 10a and FIG. 10b. Cell survival rate(%)=absorbance of the experimental group/absorbance of the control group.

For `O=C1O[C@H]([C@@H](O)CO)C(O)=C1O` [Ascorbic acid, ascorbic acid, reference compound], the “Scavenging efficiency (%)” value worked out at 57.5 ± 1.4% in data set [1] (25 μM) and 89.8 ± 0.9% in [1] (50 μM).

With `O=C(C=Cc1ccc(O)c(O)c1)NCCc1ccccc1` [Compound of formula (1)], the EC50 in data set [1] (DPPH free radical scavenging, read-out: SC50 (the source's name)) was found to be 22.1 ± 1.3 µM. The “Concentration of ROS (times compared to the untreated cells)” value in data set [2] (5 μM) was 1.2 ± 0.13 times; in data set [2] (10 μM), 1.0 ± 0.21 times; in [2] (25 μM), 0.8 ± 0.07 times; in [2] (25 μM, listed as compound of formula (1)), 0.8 times. Besides, in the data set on MMP-1, the “expression level of MMP-1 as compared to that of the untreated cells” value amounted to 1.0 times. The “expression level of MMP-3 as compared to that of the untreated cells” value in the data set on MMP-3 is 1.0 times. For the same compound, the “expression level of p-ERK as compared to that of the untreated cells” value was 1.2 times in the data set on p-ERK (10 μM) and 1.3 times in the data set with p-ERK (25 μM). Further, the “expression level of p-JNK as compared to that of the untreated cells” value is 1.2 times in the data set on p-JNK (10 μM) and 0.8 times with p-JNK (25 μM). Moreover, the “expression level of p-p38 as compared to that of the untreated cells” value in the data set on p-p38 (10 μM) is reported as 1.2 times; in the data set with p-p38 (25 μM), 1.0 times. Besides, the “expression level of c-Fos as compared to that of the untreated cells” value in the data set on c-Fos is 1.1 times. Moreover, the “expression level of c-Jun as compared to that of the untreated cells” value in the data set on c-Jun (10 μM) amounted to 1.1 times; in the data set on c-Jun (25 μM) it was 1.2 times. Moreover, the “effect on protein expression level of Smad3” value in the data set on Smad3 is “not affected”. Besides, the “protein expression level of Smad7 as compared to that of the untreated cells” value with Smad7 (5 μM) worked out at 1.2 times; with Smad7 (10 μM), 0.7 times; with Smad7 (25 μM), 0.7 times. Also, the “protein expression level of procollagen-1 decreased by UVB, reversed to” value in the data set on procollagen-1 was determined as 0.7 times. For the same compound, the “Cell survival rate (%)” value came to 99.9 ± 1.8% in data set [3] (5 μM), 99.5 ± 4.6% in [3] (10 μM), 104.2 ± 3.7% in [3] (25 μM) and 107.8 ± 1.2% in data set [3] (50 μM).
